Patent US20140186268A1, “Oxide Ferrimagnetics with Spinel Structure Nanoparticles and Iron Oxide Nanoparticles, Biocompatible Aqueous Colloidal Systems Comprising Nanoparticles, Ferriliposomes, and Uses Thereof” (priority 2011, published 2014)

Columns and labels:
[1] = tested on: orthotopic allograft mouse breast cancer model; assay: Doxorubicin treatment, orthotopic allograft mouse breast cancer model; format: in vivo; settings: single dose 15 mg/kg, two weeks after administration
Procedure: Doxorubicin hydrochloride (Sigma) was dissolved in ferromagnetic iron oxide nanoparticles containing stabilizing buffer and then encapsulated into PEGylated liposomes. Three weeks after transplantations of primary cells (average tumour volume 75 mm^3) ferriliposomes loaded with doxorubicin were administered at a dose of 15 mg/kg (Dox+FLt, n=4). Magnets of 0.33 T (diameter 4.5 mm) were glued to the tumour by cyanoacrylate before injection and removed by acetone 24 hours after administration. Control group was treated with systemic administration of doxorubicin without any targeting (Dox, n=4). The horizontal and vertical tumour diameters were measured by digital calliper twice per week and volumes were calculated using the formula V=(a×b2)π/6 where a and b are the longer and shorter diameter of the tumour, respectively.

[2] = parameters: species or system rats; settings: rat, in vivo, 500 mg/kg
Procedure: Female rats were treated with 500 mg/kg of iron oxide nanoparticles (n=16) and stabilizing buffer (n=8) as control. […] were sacrificed at day 7 and 12 after injection. Blood was collected and serum separation performed by centrifugation in Li-heparin 0.6 ml flasks (Fuji Photo Film Co., Ltd. Life Science Products Division). Biochemical parameters of creatinine, urea nitrogen, alanine transaminase, aspartate transaminase, creatine phosphokinase and total bilirubin in blood were analyzed by biochemical analyzer Fujifilm DRI CHEM 3500i (Fuji Photo Film Co., Ltd. Life Science Products Division). The kidneys, spleen, liver, heart and lung tissues were collected and fixed in 10% neutral formalin. Organs were dehydrated and maintained in paraffin blocks. 5 μm paraffin sections were stained by hematoxylin and eosin for histo-pathological analysis. iron oxide nanoparticles were detected in animal tissues by Prussian blue staining with carmine (Sigma).

| Compound | reduction of tumour volume [1] [%] | histo-pathological analysis of lung, liver, kidney and spleen [2] |
| --- | --- | --- |
| COc1cccc2c1C(=O)c1c(O)c3c(c(O)c1C2=O)C[C@@](O)(C(=O)CO)C[C@@H]3O[C@H]1C[C@H](N)[C@H](O)[C@H](C)O1 [doxorubicin] | 60 |  |
| Fe3O4 [iron oxide nanoparticles] |  | No morphological changes |
